{
  "source": "patent US12083227B2",
  "about": "“Solid pharmaceutical formulations for treating endometriosis, uterine fibroids, polycystic ovary syndrome or adenomyosis” (priority 2017, dated 2024)",
  "key": {"[1]": {"tested_on": "ovulation and endometrial thickness in healthy women", "assay": "3-menstrual cycle study in healthy women", "format": "in vivo, human", "conditions": "transvaginal ultrasound, 150 mg QD and 200 mg BID"}, "women with endometriosis": {"tested_on": "women with endometriosis", "assay": "Phase 3 studies EM-I and EM-II with extension studies EM-III and EM-IV (pooled efficacy, pharmacodynamics, safety)", "format": "in vivo, human", "conditions": "for Depressed Mood, depression, depressive symptoms and or tearfulness: Placebo 17 (2.3); for Mood altered, mood swings: Placebo 25 (3.4); for Completed Suicide: EM-1 and EM-2; for patients with a Z-score below the normal lower bound of −2.0: following 12 months of treatment", "excerpt": "Each placebo-controlled study assessed the reduction in endometriosis-associated pain over 6 months of treatment. More than 75 percent of women who completed Study EM-I and EM-II enrolled in the extension studies for an additional 6 month treatment period. Subjects were followed for up to 12 months post-treatment. Women in these studies also provided a daily self-assessment of their endometriosis pain using the Numeric Rating Scale (NRS), on a scale ranging from 0 (no pain) to 10 (worst pain ever). […] The effects of elagolix on menstrual bleeding were evaluated for up to 12 months using an electronic daily diary where subjects classified their flow of menstrual bleeding (if present in the last 24 hours) as spotting, light, medium, or heavy. […] The population age range was 18-49 years old. Women who completed six months of treatment and met eligibility criteria continued treatment in two blinded six-month extension studies, for a total treatment duration of up to 12 months. In the placebo-controlled and extension clinical studies, BMD was measured by DXA. Changes observed in BMD at other anatomical sites (femoral neck, total hip) were generally smaller than lumbar spine."}, "[2]": {"tested_on": "reproductive organs of monkeys", "assay": "repeat-dose study in monkeys", "format": "in vivo, monkey", "conditions": "repeat-dose, 75, 150, 300 and 600 mg/kg/day, all doses", "excerpt": "Based on pharmacologic actions of elagolix in humans a reversible effect on fertility may be expected in women."}, "[3]": {"assay": "lactation study in rats (elagolix in diet through gestation and lactation)", "format": "in vivo, rat", "conditions": "dams 400 mg/kg daily in diet", "method": "Pregnant rats were given diet containing elagolix throughout the gestation and lactation periods to achieve a daily elagolix dose of 400 mg/kg. During nursing the dams and litters were divided into restricted feeding and non-restricted groups to determine whether elagolix was secreted in the mother's milk. […] In pups of the non-restricted feeding group, elagolix plasma concentrations were measurable and approximately 1% of the mother's plasma concentrations."}, "[4]": {"tested_on": "endometriosis with associated pain in premenopausal women", "assay": "Study EM-I (placebo-controlled) and its extension", "format": "in vivo, human", "conditions": "Month 6 and Month 12", "excerpt": "Each placebo-controlled study assessed the reduction in endometriosis-associated pain over 6 months of treatment. More than 75 percent of women who completed Study EM-I and EM-II enrolled in the extension studies for an additional 6 month treatment period. Subjects were followed for up to 12 months post-treatment. The co-primary efficacy endpoints were the proportion of responders for dysmenorrhea and pelvic pain not related to menses (also known as non-menstrual pelvic pain [NMPP]) at Month 3 compared to placebo. The primary analysis independently evaluated these endpoints using a daily diary that asked patients to assess their pain and its impact on their daily activities, over the previous 24 hours. […] Women were defined as responders if they experienced clinically meaningful reduction in dysmenorrhea and/or NMPP with no increased analgesic use for endometriosis associated pain. Dyspareunia was evaluated as a secondary endpoint using the Daily Endometriosis Pain Impact Scale. Endometrial biopsies were performed in subjects in Study EM-I and its extension at Month 6 and Month 12."}, "[5]": {"tested_on": "fatigue in women with moderate to severe endometriosis-related pain", "assay": "Phase III study of fatigue (PROMIS Fatigue SF-6a) in endometriosis pain", "format": "in vivo, human", "method": "A Phase III study was conducted to assess the effects of elagolix for clinically meaningful reductions in pain and other symptoms. Data provided examined the impact of elagolix on fatigue in women with moderate to severe endometriosis-related pain. […] Fatigue was assessed using the Patient Reported Outcome Measurement Information System (PROMIS®), Fatigue Short Form (SF) 6a. Six items assessed a range of self-reported symptoms from mild, subjective feelings of tiredness to overwhelming, sustained sense of exhaustion that likely decreases one's ability to execute daily activities and function normally. The domain was divided into the experience of fatigue (frequency, duration and intensity) and impact of fatigue on physical, mental and social activities. All items assessed fatigue over the previous seven days. Responses to each question was filed on a 5-item Likert scale: 1—“Not at all”; 2—“A little bit”; 3—“Somewhat”; 4—“Quite a bit”; and 5—“Very much.” The questionnaire was administered at baseline and months 1, 3, and 6. Lower scores indicated less fatigue. Post-hoc, Fatigue SF-6a raw scores were converted to T-scores. The T-score rescales […] the raw score into a standardized score such that the general population has a mean of 50 and a standard deviation (SD) of 10. Analysis: […] ANCOVA controlled for treatment as main effect. Baseline Fatigue SF-6a T-score included as a covariate."}, "[6]": {"assay": "drug interaction studies: elagolix in the presence of co-administered drug", "format": "in vivo, human", "conditions": "for AUC Ratio (co-administration vs. elagolix alone) / Cmax Ratio (co-administration vs. elagolix alone): elagolix 150 mg single dose", "protocol": "Drug interaction studies were performed with elagolix and other drugs that are likely to be co-administered and with drugs commonly used as probes for pharmacokinetic interactions."}, "[7]": {"conditions": "Ketoconazole 400 mg once daily, N 11"}, "[8]": {"conditions": "Rifampin 600 mg single dose, N 12"}},
  "data": [
    {"molecule": "COc1cccc(-c2c(C)n(Cc3c(F)cccc3C(F)(F)F)c(=O)n(C[C@H](NCCCC(=O)O)c3ccccc3)c2=O)c1F", "note": "[elagolix, 4-((R)-2-[5-(2-fluoro-3-methoxy-phenyl)-3-(2-fluoro-6-trifluoromethyl-benzyl)-4-methyl-2,6-dioxo-3,6-dihydro-2H-pyrimidin-1-yl]-1-phenyl-ethylamino)-butyric acid]", "values": [
      {"measurement": "mean endometrial thickness compared to the pretreatment values", "setting": "[1]", "value": "dose dependent decrease"},
      {"measurement": "Suicidal ideation", "setting": "women with endometriosis; 150 mg Once Daily (N = 475)", "value": "1 (0.2) N (%)"},
      {"measurement": "Depressed Mood, depression, depressive symptoms and or tearfulness", "setting": "women with endometriosis; 150 mg Once Daily (N = 475)", "value": "13 (2.7) N (%)"},
      {"measurement": "Mood altered, mood swings", "setting": "women with endometriosis; 150 mg Once Daily (N = 475)", "value": "25 (5.7) N (%)"},
      {"measurement": "Numeric Rating Scale (NRS) scores of endometriosis pain", "setting": "women with endometriosis; 150 mg QD and 200 mg BID vs placebo at Month 3 and Month 6, p<0.001", "value": "significant reduction"},
      {"measurement": "percentage of days per month of the opioid or naproxen rescue medication use", "setting": "women with endometriosis; 200 mg BID compared to placebo", "value": "significant reduction"},
      {"measurement": "Suicidal ideation", "setting": "women with endometriosis; 200 mg Twice Daily (N = 477)", "value": "1 (0.2) N (%)"},
      {"measurement": "Depressed Mood, depression, depressive symptoms and or tearfulness", "setting": "women with endometriosis; 200 mg Twice Daily (N = 477)", "value": "29 (6.1) N (%)"},
      {"measurement": "Mood altered, mood swings", "setting": "women with endometriosis; 200 mg Twice Daily (N = 477)", "value": "25 (5.2) N (%)"},
      {"measurement": "Completed Suicide", "setting": "women with endometriosis; 150 mg Once Daily (N = 475)", "value": "1 (0.2) N (%)"},
      {"measurement": "Completed Suicide", "setting": "women with endometriosis; 200 mg Twice Daily (N = 477)", "value": "0 N (%)"},
      {"measurement": "resumption of menses after stopping, % of women", "setting": "women with endometriosis; after 6 months of 150 mg once daily, within 1 month", "value": 59, "unit": "%"},
      {"measurement": "resumption of menses after stopping, % of women", "setting": "women with endometriosis; after 6 months of 150 mg once daily, within 2 months", "value": 87, "unit": "%"},
      {"measurement": "resumption of menses after stopping, % of women", "setting": "women with endometriosis; after 6 months of 150 mg once daily, within 6 months", "value": 95, "unit": "%"},
      {"measurement": "resumption of menses after stopping, % of women", "setting": "women with endometriosis; after 6 months of 200 mg twice daily, within 1 month", "value": 60, "unit": "%"},
      {"measurement": "resumption of menses after stopping, % of women", "setting": "women with endometriosis; after 6 months of 200 mg twice daily, within 2 months", "value": 88, "unit": "%"},
      {"measurement": "resumption of menses after stopping, % of women", "setting": "women with endometriosis; after 6 months of 200 mg twice daily, within 6 months", "value": 97, "unit": "%"},
      {"measurement": "resumption of menses after stopping, % of women", "setting": "women with endometriosis; after 12 months of 150 mg once daily, within 1 month", "value": 77, "unit": "%"},
      {"measurement": "resumption of menses after stopping, % of women", "setting": "women with endometriosis; after 12 months of 150 mg once daily, within 2 months", "value": 95, "unit": "%"},
      {"measurement": "resumption of menses after stopping, % of women", "setting": "women with endometriosis; after 12 months of 150 mg once daily, within 6 months", "value": 98, "unit": "%"},
      {"measurement": "resumption of menses after stopping, % of women", "setting": "women with endometriosis; after 12 months of 200 mg twice daily, within 1 month", "value": 55, "unit": "%"},
      {"measurement": "resumption of menses after stopping, % of women", "setting": "women with endometriosis; after 12 months of 200 mg twice daily, within 2 months", "value": 91, "unit": "%"},
      {"measurement": "resumption of menses after stopping, % of women", "setting": "women with endometriosis; after 12 months of 200 mg twice daily, within 6 months", "value": 96, "unit": "%"},
      {"measurement": "recovery of BMD at lumbar spine, total hip and femoral neck", "setting": "women with endometriosis; both treatment groups, post-treatment months 6 and 12", "value": "progressive recovery of BMD"},
      {"measurement": "patients with a Z-score below the normal lower bound of −2.0", "setting": "women with endometriosis; 150 mg daily dose", "value": "no patient"},
      {"measurement": "patients with a Z-score below the normal lower bound of −2.0", "setting": "women with endometriosis; 200 mg BID", "value": "less than 1%"},
      {"measurement": "percentage of days in which rescue opioid medication was taken", "setting": "women with endometriosis; pooled analysis of two phase 3 trials, 150 QD and 200 BID vs placebo", "value": "significant reduction"},
      {"measurement": "mean percent daily pill counts (rescue opioid)", "setting": "women with endometriosis; pooled analysis, 200 mg BID vs placebo", "value": "significant reduction"},
      {"measurement": "reproductive organ findings (cervix, uterus and vagina)", "setting": "[2]", "value": "reversible atrophy of reproductive organs"},
      {"measurement": "plasma concentrations in pups relative to the mother's plasma concentrations", "setting": "[3]; rat pups of non-restricted feeding group", "value": "approximately 1%"},
      {"measurement": "plasma concentrations in pups", "setting": "[3]; rat pups of restricted feeding litters, post natal day 10 and 20", "value": "not measurable"},
      {"measurement": "endometrial biopsy findings post-baseline (hyperplasia or cancer)", "setting": "[4]", "value": "no abnormal biopsy findings"},
      {"measurement": "reduction in fatigue (PROMIS Fatigue SF-6a T-Score)", "setting": "[5]; 200 mg, as early as Month 1", "value": "statistically significant reduction"},
      {"measurement": "PROMIS Fatigue SF-6a T-Score relative to placebo", "setting": "[5]; both doses (150 mg QD, 200 mg BID) at Months 3 and 6", "value": "Statistically significant reductions"},
      {"measurement": "AUC Ratio (co-administration vs. elagolix alone)", "setting": "[6]; [7]", "value": 2.20},
      {"measurement": "Cmax Ratio (co-administration vs. elagolix alone)", "setting": "[6]; [7]", "value": 1.77},
      {"measurement": "AUC Ratio (co-administration vs. elagolix alone)", "setting": "[6]; Rifampin 600 mg once daily", "value": 1.65},
      {"measurement": "Cmax Ratio (co-administration vs. elagolix alone)", "setting": "[6]; Rifampin 600 mg once daily", "value": 2.00},
      {"measurement": "AUC Ratio (co-administration vs. elagolix alone)", "setting": "[6]; [8]", "value": 5.58},
      {"measurement": "Cmax Ratio (co-administration vs. elagolix alone)", "setting": "[6]; [8]", "value": 4.37},
      {"measurement": "direction of the change in AUC of elagolix", "setting": "[6]; co-administered with rifampin", "value": "↑ elagolix"}
    ]}
  ]
}
